Measured values as given in paper PMC8217011, “Natural brominated phenoxyphenols kill persistent and biofilm-incorporated cells of MRSA and other pathogenic bacteria” (Applied Microbiology and Biotechnology, 2020).
Several values for one entry are separate records, joined by “and”; a condition that tells them apart may be missing. Identical values can stand only once.

How the values were obtained:
[1] = system: actively replicating MRSA strain Mu50; test: Killing kinetics, actively replicating cells (CFU plating); type: cell-based, Staphylococcus aureus; conditions: MHB, start 10^6 CFU/mL; for time of first antibacterial effects: 4× MIC; for time until viability reached the detection limit: PPs at 4× MIC, moxifloxacin 20 μM, detection limit 10^2 CFU/mL
Protocol: S. aureus cells were freshly incubated in MHB until an OD600 nm of approx. 0.6 was reached. Next, the cells were diluted to 10^6 CFU/mL in 5 mL MHB. […] At certain time points (0, 0.5, 1, 3, 6, 8, 24 h), 100 μL was removed from the culture, diluted and plated onto MHA plates. After 24-h incubation, colonies were counted and viability (expressed as colony-forming units per mL (CFU/mL)) was calculated considering the dilution factor.

[2] = system: Klebsiella pneumoniae ATCC 700603; test: MIC determination (microbroth dilution); type: cell-based; conditions: ATCC700603
Protocol: (§1) Cultures were, if not stated differently, incubated at 37 °C with aeration and shaking (150 rpm) in Mueller-Hinton broth (MHB). Bacteria were freshly incubated at the next morning from an overnight pre-culture for actively growing bacteria to an OD600 nm of approx. 0.6. To ensure persistent growth form, the bacteria were grown overnight until a density at OD600 nm > 5.0 was obtained. For biofilm growth, some colonies from a Mueller-Hinton agar (MHA) plate were picked and resuspended in MHB. Cell density has been adjusted to OD600 nm = 0.8, and cells were sown into a flat-bottom 96-well plate to be incubated statically at 37 °C with aeration. Studies were mainly performed with S. aureus Mu50.
(§2) The minimal inhibitory concentration (MIC) has been determined according to the CSLI guidelines (CLSI [2012]). Briefly, in a sterile polystyrene U-bottom 96-well plate, a 2-fold serial dilution ranging from 100 to 0.78 μM of testing compounds has been prepared in 50 μL MHB. A freshly inoculated S. aureus culture was grown until OD600 nm of approx. 0.6 and diluted to 10^6 CFU/mL in MHB. Finally, 50 μL of the latter cell suspension was added to each well and then incubated statically for 18–24 h at 37 °C. MIC was determined using BacTiterGlo ATP assay (Promega, Madison, WI, USA) and Tecan Infinite F200 Pro (Tecan, Männedorf, Switzerland). Moxifloxacin and DMSO were used as positive and negative control, respectively. Sublethal concentrations of colistin (0.1 μM) were used in some experiments to increase the permeability of the gram-negative cell envelope for compound testing. For E. cloacae, a broth microdilution assay was performed using a serial 2-fold dilution in 96-well flat-bottomed plates (Falcon, BD Bioscience, Heidelberg) of both PPs in broth LB medium (Roth, Karlsruhe) at a concentration range of 50–0.024 μM.

[3] = system: Staphylococcus aureus strain ATCC 25923; test: MIC determination (microbroth dilution); type: cell-based; conditions: ATCC25923
Protocol: as §1, §2

S. aureus Mu50 = test: MIC determination (microbroth dilution); type: cell-based; conditions: Staphylococcus aureus
Protocol: as §1, §2

S. aureus COL = test: MIC determination (microbroth dilution); type: cell-based; conditions: Staphylococcus aureus
Protocol: as §1, §2

[4] = system: Pseudomonas aeruginosa PAO1; test: MIC determination (microbroth dilution); type: cell-based
Protocol: as §1, §2

[5] = system: Bacillus subtilis 168 trp C2; test: MIC determination (microbroth dilution); type: cell-based; conditions: 168TRPC2
Protocol: as §1, §2

[6] = system: Enterococcus faecium ATCC 35667; test: MIC determination (microbroth dilution); type: cell-based; conditions: ATCC35667
Protocol: as §1, §2

E. faecalis ATCC 51299 = test: MIC determination (microbroth dilution); type: cell-based; conditions: Enterococcus faecalis, ATCC51299
Protocol: as §1, §2

[7] = system: Escherichia coli ATCC 25922; test: MIC determination (microbroth dilution); type: cell-based; conditions: Escherichia coli
Protocol: as §1, §2

S. aureus USA300 = test: MIC determination (microbroth dilution); type: cell-based; conditions: Staphylococcus aureus
Protocol: as §1, §2

E. faecalis ATCC 29212 = test: MIC determination (microbroth dilution); type: cell-based; conditions: Enterococcus faecalis, ATCC29212
Protocol: as §1, §2

E. faecium ATCC 700221 = test: MIC determination (microbroth dilution); type: cell-based; conditions: Enterococcus faecium, ATCC700221
Protocol: as §1, §2

A. baumannii ATCC 1605 = test: MIC determination (microbroth dilution); type: cell-based; conditions: Acinetobacter baumannii, ATCC1605, multidrug-resistant strain
Protocol: as §1, §2

[8] = system: Acinetobacter baumannii ATCC 747; test: MIC determination (microbroth dilution); type: cell-based; conditions: Acinetobacter baumannii, ATCC747
Protocol: as §1, §2

S. aureus TCH1516 = test: MIC determination (microbroth dilution); type: cell-based; conditions: Staphylococcus aureus
Protocol: as §1, §2

[9] = system: stationary phase-induced persistent cells of MRSA strain Mu50; test: Persister killing kinetics (CFU plating); type: cell-based, Staphylococcus aureus; conditions: start 10^8 CFU/mL
Protocol: For persister killing kinetics, cells were grown overnight until a density of OD600 nm > 5.0 was reached and then washed three times with PBS. Next, cell density was adjusted to 10^8 CFU/mL in 5 mL PBS. […] Analysis was performed as described above.

A. baumannii ATCC 747 = test: Killing kinetics, replicating cells; type: cell-based; conditions: 2-bromo-PP 3.125 µM, 3-bromo-PP 6.25 µM; multidrug-resistant Acinetobacter baumannii as worded
Protocol: 39 Figure S2 – Bactericidal effects of 2-bromo-PP and 3-bromo-PP against replicating
40 cells of A. baumannii ATCC 747. Colistin was used as positive control (3.125 µM). 2-
41 bromo-PP and 3-bromo-PP were used at concentrations of 3.125 µM and 6.25 µM,
42 respectively. The limit of detection was 500 CFU/mL.
(1 picture or pasted object on this page, not shown here)

S. aureus = test: Generation of spontaneous resistant mutants; type: cell-based, Staphylococcus aureus; conditions: for fold increased MIC of mutants: after 15 passages in liquid media with increasing sublethal concentrations; for resistance frequency: one-step selection on solid media at 5-fold MIC
From the text: Spontaneous resistant mutants have been generated with 2-bromo-PP and 3-bromo-PP to further investigate the mechanism of antibacterial action and resistance. Since isolation of spontaneous resistant mutants in one step was not successful on solid media containing 2-bromo-PP or 3-bromo-PP (i.e. resistance frequency < 10^−7 at 5-fold MIC), enrichment was done by passaging bacteria daily in liquid media containing increasing sublethal concentrations of PPs. […] Moreover, we observed cross-resistance between PPs since 2-bromo-PP-resistant mutants were also resistant against 3-bromo-PP and vice versa (Fig. 4a; Table 2).

Row | SMILES | time of first antibacterial effects [1] [h] | time until viability reached the detection limit [1] [h] | MIC90 [2] | MIC90 [3] | MIC90 (S. aureus Mu50) | MIC90 (S. aureus COL) | MIC90 [4] | MIC90 [5] | MIC90 [6] | MIC90 (E. faecalis ATCC 51299) | MIC90 ([7]; ATCC25922, + 0.1 μM colistin) | MIC90 ([7]; ATCC25922, without colistin) | MIC90 (S. aureus USA300) | MIC90 (E. faecalis ATCC 29212) | MIC90 (E. faecium ATCC 700221) | MIC90 (A. baumannii ATCC 1605; + 0.1 μM colistin) | MIC90 (A. baumannii ATCC 1605; without colistin) | MIC90 [8] | MIC90 (S. aureus TCH1516) | bactericidal effect against replicating cells (A. baumannii ATCC 747) | further results
1 | Oc1c(Br)cc(Br)cc1Oc1ccc(Br)cc1Br [2-bromo-PP, 4,6-dibromo-2-(2′,4′-dibromophenoxy)phenol] | 3 | 8 | 1.56 µM and 0.78 µg/mL | 0.39 µM and 0.2 µg/mL | 0.19 µM and 0.1 µg/mL | 0.78 µM and 0.39 µg/mL | 0.78 µM and 0.39 µg/mL | 0.39 µM and 0.2 µg/mL | 0.78 µM and 0.39 µg/mL | 0.78 µM and 0.39 µg/mL | 0.04 µM and 0.02 µg/mL | 3.12 µM and 1.57 µg/mL | 0.78 µM and 0.39 µg/mL | 0.78 µM and 0.39 µg/mL | 0.78 µM and 0.39 µg/mL | 0.39 µM and 0.2 µg/mL | 0.78 µM and 0.39 µg/mL | 0.78 µM and 0.39 µg/mL | 0.78 µM and 0.39 µg/mL | comparable bactericidal effect | time until viability reduced to the detection limit ([9]; PPs at 4× MIC, NH125 10 μM, detection limit 10^2 CFU/mL): 8 h; fold increased MIC of mutants (S. aureus): 4 fold; resistance frequency (S. aureus): < 10^−7
2 | Oc1c(Br)cc(Br)c(Br)c1Oc1ccc(Br)cc1Br [3-bromo-PP, 3,4,6-tribromo-2-(2′,4′-dibromophenoxy)phenol] | 6 | 8 | 3.12 µM and 1.81 µg/mL | 0.78 µM and 0.45 µg/mL | 0.1 µM and 0.06 µg/mL | 0.78 µM and 0.45 µg/mL | 1.56 µM and 0.9 µg/mL | 0.39 µM and 0.23 µg/mL | 0.39 µM and 0.23 µg/mL | 0.78 µM and 0.45 µg/mL | 0.04 µM and 0.02 µg/mL | 6.25 µM and 3.63 µg/mL | 0.39 µM and 0.23 µg/mL | 0.78 µM and 0.45 µg/mL | 0.78 µM and 0.45 µg/mL | 0.78 µM and 0.45 µg/mL | 1.56 µM and 0.91 µg/mL | 3.12 µM and 1.81 µg/mL | 0.78 µM and 0.45 µg/mL | comparable bactericidal effect | decrease of viability of persistent cells after 24 h ([9]; 3-bromo-PP at 4× MIC, moxifloxacin control, 24 h): 2 logs; fold increased MIC of mutants (S. aureus): 32 fold; resistance frequency (S. aureus): < 10^−7
